Assay results taken from patent US20260207604A1, “COMPOUND AND USE THEREOF” (ONQUALITY PHARMACEUTICALS CHINA LTD., priority 2022, published 2026).
Where two headings read alike, the source gives them in different places.

What was measured:
[1] = target: CDK2/cyclin E (Homo sapiens, UniProt P24941); test: KinaseProfile radiometric protein kinase assay, CDK2/cyclin E; format: biochemical
Description: (§1) The KinaseProfile radiometric protein kinase assay was used to evaluate the inhibitory activity of the compounds against CDK2/cyclin E, CDK4/cyclin D, CDK6/cyclin D, CDK7/cyclin H and CDK9/cyclin T.
(§2) The compounds were prepared in 100% DMSO at a final 50× stock concentration. The working stock solution was added as the first component to the assay wells. CDK2/cyclin E, CDK4/cyclin D, CDK6/cyclin D, CDK7/cyclin H, and CDK9/cyclin T were added in their respective kinase buffers: (CDK4: 8 mM MOPS pH 7.0, 0.2 mM EDTA, 0.03% BSA, 0.03% Tween 20, 20 mM DTT, and 0.2 mg/ml Rb fragment, 10 mM Magnesium acetate; CDK2, CDK6: 8 mM MOPS pH 7.0, 0.2 mM EDTA, 0.1 mg/mL histone H1, 10 mM Magnesium acetate; CDK7: 8 mM MOPS pH 7.0, 0.2 mM EDTA, 500 μM peptide, 10 mM Magnesium acetate; CDK9: 8 mM MOPS pH 7.0, 0.2 mM EDTA, 100 μM […], 10 mM Magnesium acetate) and [γ-^33 P-ATP] was included in the reaction mixture. The reaction was initiated by the addition of the Mg/ATP mixture and incubated at room temperature for 40 minutes. The reaction was terminated by the addition of 0.5% phosphoric acid. Then, 10 μL of the reaction mixture was spotted onto P30 filter pads, washed four times (1 minute each) with 0.425% phosphoric acid, followed by a single wash with methanol. The pads were then dried and counted. The data were recorded, inhibition rates were calculated, and IC50 values were determined accordingly. Table 2 summarizes the in vitro enzymatic inhibitory activity of the compounds of the present application.

[2] = target: CDK4/cyclin D (Homo sapiens, UniProt P11802); test: KinaseProfile radiometric protein kinase assay, CDK4/cyclin D; format: biochemical
CDK4/cyclin D, sequence (P11802 whole entry): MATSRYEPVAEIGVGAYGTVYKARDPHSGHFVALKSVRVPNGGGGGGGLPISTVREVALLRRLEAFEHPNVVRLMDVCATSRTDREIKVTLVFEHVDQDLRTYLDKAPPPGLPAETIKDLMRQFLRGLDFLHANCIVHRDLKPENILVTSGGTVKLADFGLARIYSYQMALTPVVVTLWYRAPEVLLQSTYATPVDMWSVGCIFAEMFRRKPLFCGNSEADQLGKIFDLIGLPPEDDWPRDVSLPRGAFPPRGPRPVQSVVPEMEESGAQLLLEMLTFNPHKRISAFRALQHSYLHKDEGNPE
CDK4/cyclin D, sequence (P30281 whole entry partner): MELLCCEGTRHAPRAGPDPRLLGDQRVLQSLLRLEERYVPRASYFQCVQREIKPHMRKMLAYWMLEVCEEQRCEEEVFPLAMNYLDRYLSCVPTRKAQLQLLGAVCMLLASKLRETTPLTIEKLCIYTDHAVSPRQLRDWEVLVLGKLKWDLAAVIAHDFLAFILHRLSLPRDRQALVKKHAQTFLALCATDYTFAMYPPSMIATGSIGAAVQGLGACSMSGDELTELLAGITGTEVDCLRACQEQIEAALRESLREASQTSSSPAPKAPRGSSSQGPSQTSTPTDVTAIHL
Description: as §1, §2

[3] = target: CDK7/cyclin H (Homo sapiens, UniProt P50613); test: KinaseProfile radiometric protein kinase assay, CDK7/cyclin H; format: biochemical
CDK7/cyclin H, sequence (P50613 whole entry): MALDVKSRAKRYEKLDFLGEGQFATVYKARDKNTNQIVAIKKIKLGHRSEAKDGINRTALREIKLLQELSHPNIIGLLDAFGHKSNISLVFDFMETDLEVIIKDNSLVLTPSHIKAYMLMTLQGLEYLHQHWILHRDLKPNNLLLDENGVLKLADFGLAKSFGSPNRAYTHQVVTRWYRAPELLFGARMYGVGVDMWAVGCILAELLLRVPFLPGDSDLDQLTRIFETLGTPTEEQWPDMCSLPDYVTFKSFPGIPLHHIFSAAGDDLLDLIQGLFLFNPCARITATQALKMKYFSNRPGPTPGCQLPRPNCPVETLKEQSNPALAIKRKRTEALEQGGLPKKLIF
CDK7/cyclin H, sequence (P51946 whole entry partner): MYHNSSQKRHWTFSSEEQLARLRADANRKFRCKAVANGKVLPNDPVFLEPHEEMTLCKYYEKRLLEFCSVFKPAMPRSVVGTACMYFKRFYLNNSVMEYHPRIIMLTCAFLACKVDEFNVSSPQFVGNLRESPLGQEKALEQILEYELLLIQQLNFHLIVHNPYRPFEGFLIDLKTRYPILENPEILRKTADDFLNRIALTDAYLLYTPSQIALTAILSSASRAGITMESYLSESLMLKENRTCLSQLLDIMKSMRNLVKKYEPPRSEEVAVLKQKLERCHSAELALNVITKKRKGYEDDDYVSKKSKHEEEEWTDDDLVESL
CDK7/cyclin H, sequence (P51948 whole entry partner): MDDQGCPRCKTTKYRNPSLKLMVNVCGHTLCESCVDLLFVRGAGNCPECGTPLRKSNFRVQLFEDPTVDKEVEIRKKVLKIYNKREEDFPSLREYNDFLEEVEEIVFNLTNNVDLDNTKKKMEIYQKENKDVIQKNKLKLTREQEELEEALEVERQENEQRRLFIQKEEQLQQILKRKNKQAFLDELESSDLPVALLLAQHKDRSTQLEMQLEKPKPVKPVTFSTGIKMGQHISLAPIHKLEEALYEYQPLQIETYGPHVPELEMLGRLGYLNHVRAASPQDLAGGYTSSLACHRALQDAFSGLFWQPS
Description: as §1, §2

[4] = system: MCF-7 human breast cancer cells; test: Cell viability assay (CELLTITER-GLO); format: cell-based; conditions: MCF7, 168 h, MCF-7 cells, 7 days
Description: The cell viability of MCF-7 human breast cancer cells under standard culture conditions was assessed using the CELLTITER-GLO assay. MCF-7 cells were seeded at 3,000 cells per well in 96-well plates and incubated overnight in a CO2 incubator. The next day, serial dilutions of Compound 1 at various concentrations were added to the wells. The plates were returned to the incubator and cultured for 7 days. After 7 days, the plates were equilibrated at room temperature for 30 minutes. Subsequently, 100 μL of CELLTITER-GLO detection solution was added. The cells were mixed on an orbital shaker for 5 min and then incubated for additional 10 min. The plate was read with an ENVISION reader. Data were processed and analyzed to determine the IC50 values.

[5] = system: Human colorectal cancer COLO205 cells; test: Cell apoptosis assay (Caspase-Glo 3/7), 5-FU-induced apoptosis; format: cell-based
Description: The Caspase-Glo® 3/7 assay was employed to evaluate the protective effect of the compounds of the present invention against 5-fluorouracil (5-FU)-induced apoptosis. Human colorectal cancer COLO205 cells were cultured in RPMI 1640 medium (Invitrogen) in an incubator at 37° C. with 5% CO2.
COLO205 cells were seeded in 96-well plates at a density of 4,000 cells per well and incubated overnight. On the following day, serially diluted concentrations of Compound 1 were added to the wells and incubated for 16 hours. Afterward, 5-FU was added and the cells were incubated for an additional 48 hours. Subsequently, Caspase-Glo® 3/7 reagent (100 μL) was added to each well. The cells were mixed on an orbital shaker for 10 min and incubated at room temperature for 2 h. After an additional 10-minute incubation, the plate was measured using the Envision instrument and the data was processed. Relief rate (%)=(5-FU group−CDK group)/5-FU group×100%.

[6] = system: 5-FU-induced diarrhea model; test: 5-FU-induced diarrhea model, 5-FU 1-day model; format: in vivo, Balb/c mice; conditions: 5-FU 175 mg/kg once a day, mice
Excerpt: (§3) The 5-FU-induced diarrhea model was used as an experimental model of the present invention to evaluate the in vivo activity of the compounds.
Balb/c mice (20-25 g, 7-8 weeks old, Jihui) were acclimated for one week and then randomly assigned to 3 groups (n=10 per group): control group, 5-FU group, and CDK inhibitor group. The control group received the same vehicle as the CDK inhibitor group by oral gavage, followed by injection of the same vehicle as the 5-FU group. The 5-FU group received the same vehicle by oral gavage as the CDK inhibitor group, followed by 5-FU injection. The CDK inhibitor group received oral administration of the CDK inhibitor, followed by 5-FU injection. From day 1 to day 7, the severity of diarrhea was assessed for each mouse according to the diarrhea scoring system.
(§4) The diarrhea scoring system was based on the method by Akinobu Kurita (Cancer Chemother Pharmacol 2000; 46:211-20), Grade 0: normal stool; Grade 1: mild diarrhea, slightly soft stool and wet stool; Grade 2: moderate diarrhea, loose stool with slight perianal staining; Grade 3: severe diarrhea, loose watery stool with severe perianal staining.
(§5) The diarrhea relief rate (%) was calculated as follows: […]

[7] = system: 5-FU-induced diarrhea model; test: 5-FU-induced diarrhea model, 5-FU 3-day model; format: in vivo, Balb/c mice; conditions: 5-FU 60 mg/kg once a day for 3 days, mice
Description: as §3
Balb/c mice (20-25 g, 7-8 weeks old, Jihui) were acclimated for one week and then randomly assigned to 3 groups (n=10 per group): control group, 5-FU group, and CDK inhibitor group. […] […] […] From Day 1 to Day 7, diarrhea severity was assessed daily for each mouse according to the diarrhea scoring system.
as §4, §5

[8] = 10 mg/kg oral, 10 hours before 5-FU and 2 hours after 5-FU
[9] = 25 mg/kg oral, 8 hours before 5-FU and 4 hours after 5-FU
[10] = 10 mg/kg oral twice a day for 3 days
[11] = 10 mg/kg oral twice a day for 3.5 days
[12] = 50 mg/kg oral twice a day for 3 days
[13] = 100 mg/kg oral twice a day for 3 days
[14] = 50 mg/kg oral, 8 hours before 5-FU and 4 hours after 5-FU

Row | SMILES | IC50 [1] [µM] | IC50 [2] [µM] | IC50 [3] [µM] | IC50 ([4]; read-out: Absolute IC 50) [µM] | IC50 ([4]; read-out: Relative IC 50) [µM] | Relief rate of 5-FU -induced cell apoptosis ([5]; concentration 0.1 μM) [%] | Relief rate of 5-FU -induced cell apoptosis ([5]; concentration 1 μM) [%] | Relief rate of 5-FU -induced cell apoptosis ([5]; concentration 5 μM) [%] | Relief rate of 5-FU -induced cell apoptosis ([5]; concentration 25 μM) [%] | diarrhea relief rate [6, 8] [%] | diarrhea relief rate [6, 9] [%] | diarrhea relief rate [7, 10] [%] | diarrhea relief rate [7, 11] [%] | diarrhea relief rate [7, 12] [%] | diarrhea relief rate [7, 13] [%] | diarrhea relief rate [6, 14] [%] | further results
1 | CC(=O)c1c(C)c2cnc(Nc3ccc(N4CCN(S(=O)(=O)NCC(C)N)CC4)cn3)nc2n(C2CCCC2)c1=O (stereo not drawn) [Compound 3] | > 10 | < 0.05 | > 10 | < 10 | < 5 | 20 | 40 | 40 | 30 | 50 | 60 | 30 | 40 | 40 | 70 |  | diarrhea relief rate ([6]; 25 mg/kg oral, 2 hours before 5-FU and 10 hours after 5-FU): 40%; diarrhea relief rate ([6]; 150 mg/kg oral, 12 hours before 5-FU and 0 hours after 5-FU): 50%; diarrhea relief rate ([7]; 5 mg/kg oral twice a day for 4 days): 25%; diarrhea relief rate ([7]; 50 mg/kg oral twice a day for 3.5 days): 40%
2 | CC(=O)c1c(C)c2cnc(Nc3ccc(N4CCN(S(=O)(=O)NCC(C)CN)CC4)cn3)nc2n(C2CCCC2)c1=O (stereo not drawn) [Compound 5] | > 3 | < 0.1 | > 10 | < 10 | < 10 |  |  | 50 |  |  |  | 40 | 75 | 40 | 50 | 30 | Relief rate of 5-FU -induced cell apoptosis ([5]; concentration 0.5 μM): 10%; Relief rate of 5-FU -induced cell apoptosis ([5]; concentration 50 μM): 40%; Relief rate of 5-FU -induced cell apoptosis ([5]; concentration 100 μM): 30%; diarrhea relief rate ([6]; 10 mg/kg oral, 12 hours before 5-FU and 0 hours after 5-FU): 25%; diarrhea relief rate ([6]; 25 mg/kg oral, 6 hours before and 6 hours after 5-FU): 40%; diarrhea relief rate ([6]; 100 mg/kg oral, 4 hours before 5-FU and 8 hours after 5-FU): 40%; diarrhea relief rate ([7]; 30 mg/kg oral twice a day for 4 days): 30%; diarrhea relief rate ([7]; 60 mg/kg oral twice a day for 3.5 days): 50%
3 | CC(=O)c1c(C)c2c(n(C3CCCC3)c1=O)=NC(Nc1ccc(N3CCN(S(=O)(=O)NCCN)CC3)cn1)NC=2 (stereo not drawn) [Compound 1] | > 10 | < 0.05 | > 10 | < 1 | < 1 | 30 | 60 | 80 | 40 |  |  |  | 40 | 40 | 50 | 60 | diarrhea relief rate ([6]; 5 mg/kg oral, 8 hours before 5-FU and 4 hours after 5-FU): 50%; diarrhea relief rate ([6]; 10 mg/kg oral, 6 hours before and 6 hours after 5-FU): 40%; diarrhea relief rate ([6]; 25 mg/kg oral, 12 hours before 5-FU): 85%; diarrhea relief rate ([6]; 75 mg/kg oral, 6 hours before and 6 hours after 5-FU): 50%; diarrhea relief rate ([6]; 100 mg/kg oral, 8 hours before 5-FU and 4 hours after 5-FU): 75%; diarrhea relief rate ([7]; 25 mg/kg oral twice a day for 3 days): 60%; diarrhea relief rate ([7]; 75 mg/kg oral twice a day for 4 days): 55%; diarrhea relief rate ([7]; 100 mg/kg oral twice a day for 3.5 days): 40%
4 | CC(=O)c1c(C)c2cnc(Nc3ccc(N4CCN(S(=O)(=O)NCC(C)(C)CN)CC4)cn3)nc2n(C2CCCC2)c1=O [Compound 6] | > 10 | < 0.05 | > 3 | < 1 | < 1 | 20 | 40 | 60 | 70 | 60 | 75 | 30 |  |  | 60 |  | diarrhea relief rate ([6]; 50 mg/kg oral, 6 hours before and 6 hours after 5-FU): 80%; diarrhea relief rate ([6]; 100 mg/kg oral, 12 hours before 5-FU): 50%; diarrhea relief rate ([7]; 20 mg/kg oral twice a day for 3.5 days): 50%; diarrhea relief rate ([7]; 30 mg/kg oral twice a day for 3 days): 50%; diarrhea relief rate ([7]; 50 mg/kg oral twice a day for 4 days): 75%; diarrhea relief rate ([7]; 80 mg/kg oral twice a day for 3.5 days): 60%
